One data set relates to HCMV. Description: Anti-HCMV (anti-human cytomegalovirus) cytopathogenicity test. The format is cell-based. Conditions: concentration inhibiting the CPE by 50% vs untreated virus control, HCMV-infected NHDF cells, 6 days, visual assessment. As for the experimental part:
Anti-HCMV (Anti-Human Cytomegalovirus) Cytopathogenicity Tests The test compounds are employed as 50 millimolar (mM) solutions in dimethyl sulfoxide (DMSO). Ganciclovir®, Foscarnet® and Cidofovir® are used as reference compounds. After the addition of 2 μl of the 50, 5, 0.5 and 0.05 mM DMSO stock solutions respectively to 98 μl portions of cell culture medium in row […] for duplicate determinations, 1:2 dilutions are carried out with 50 μl portions of medium up to row 11 of the 96-well plate. The wells in rows 1 and 12 each contain 50 μl of medium. 150 μl of a suspension of 1×10^4 cells (human prepuce fibroblasts [NHDF]) are then pipetted into each of the wells (row 1=cell control) and, in rows 2-12, a mixture of HCMV-infected and uninfected NHDF cells (M.O.I.=0.001-0.002), i.e. 1-2 infected cells per 1000 uninfected cells. Row 12 (without substance) serves as virus control. The final test concentrations are 250-0.0005 μM. The plates are incubated at 37° C./5% CO2 for 6 days, i.e. until all the cells in the virus controls are infected (100% cytopathogenic effect [CPE]). The wells are then fixed and stained by adding a mixture of formalin and Giemsa's dye (30 minutes), washed with double-distilled water and dried in a drying oven at 50° C. The plates are then assessed visually using an overhead microscope (plaque multiplier from Technomara). The following data can be obtained from the test plates: EC50 (HCMV)=substance concentration in μM which inhibits the CPE (cytopathic effect) by 50% compared with the untreated virus control;
On the technique in general: Damage to the host cells serves as the signal in cytopathic effect assays.

The nature of data set [1]: Cytostatic effects on NHDF cells in the anti-HCMV cytopathogenicity test. The format is cell-based, human. Conditions: human, concentration at which no visible cytostatic effects on NHDF cells are evident vs untreated cell control. Here is the method: (§1) Anti-HCMV (Anti-Human Cytomegalovirus) Cytopathogenicity Tests The test compounds are employed as 50 millimolar (mM) solutions in dimethyl sulfoxide (DMSO). Ganciclovir®, Foscarnet® and Cidofovir® are used as reference compounds. After the addition of 2 μl of the 50, 5, 0.5 and 0.05 mM DMSO stock solutions respectively to 98 μl portions of cell culture medium in row […] for duplicate determinations, 1:2 dilutions are carried out with 50 μl portions of medium up to row 11 of the 96-well plate. The wells in rows 1 and 12 each contain 50 μl of medium. 150 μl of a suspension of 1×10^4 cells (human prepuce fibroblasts [NHDF]) are then pipetted into each of the wells (row 1=cell control) and, in rows 2-12, a mixture of HCMV-infected and uninfected NHDF cells (M.O.I.=0.001-0.002), i.e. 1-2 infected cells per 1000 uninfected cells. Row 12 (without substance) serves as virus control. The final test concentrations are 250-0.0005 μM. The plates are incubated at 37° C./5% CO2 for 6 days, i.e. until all the cells in the virus controls are infected (100% cytopathogenic effect [CPE]). The wells are then fixed and stained by adding a mixture of formalin and Giemsa's dye (30 minutes), washed with double-distilled water and dried in a drying oven at 50° C. The plates are then assessed visually using an overhead microscope (plaque multiplier from Technomara). The following data can be obtained from the test plates: CC50 (NHDF)=substance concentration in μM at which no visible cytostatic effects on the cells are evident compared with the untreated cell control;

Data set [2] concerns NHDF (human prepuce fibroblasts). The description is as above. The note with it: concentration at which no visible cytostatic effects on NHDF cells are evident vs untreated cell control; 6 days. It counts as cell-based. As for the experimental part: as §1
The mark [3] stands for this setting: Human betaherpesvirus 5, NHDF, 144 h.

pEC50: −log10 of the molar value. Where a name gives a salt, the structure may show the parent alone.

Broadly, the pEC50 is −log10 of the EC50, conventionally taken in molar units. A high value points to a low EC50. As a reminder, the CC50 is the concentration giving 50% cytotoxicity. The low end stands for greater toxicity to the cells, the high end for lower toxicity to the cells. For `COc1c(N2CCC(C(=O)O)CC2)c(F)cc2c(=O)c(C(=O)NCc3ccc(Cl)cc3C)cn(CC(F)(F)F)c12` [Example 58], in the data set on HCMV (setting [3]), the negative-log EC50 (pEC50) was 8.22. The midpoint of cytotoxicity in data set [1], the CC50 at 6 days, lay at 47 µM.
In the same order, the values of `COc1c(N2CCC(C(=O)O)CC2)c(F)cc2c(=O)c(C(=O)NCc3ccc(OC(F)(F)F)cc3C)cn(C3CCC3)c12` [Example 61] are 8.15 and 21 µM.
In the same order, the values of `COc1c(N2CCC(C(=O)O)CC2)c(F)cc2c(=O)c(C(=O)NCc3ccc(OC(F)(F)F)cc3C)cn(CC(F)F)c12` [Example 62] are 9.00 and 148 µM.
In turn, `COc1c(N2CCC(C(=O)O)CC2)c(F)cc2c(=O)c(C(=O)NCc3ccc(OC(F)(F)F)cc3C)cn([C@@H]3C[C@@H]3F)c12` [Example 63] gave a pEC50 in the data set on HCMV (setting [3]) of 8.10. The CC50 at 6 days in data set [1] was 47 µM.
In the same order, the values of `COc1c(N2CCC(C(=O)O)CC2)c(F)cc2c(=O)c(C(=O)NCc3ccc(OC(F)(F)F)cc3C)cn(C(C)CF)c12` (stereo not shown) [Example 65] are 7.10 and 106 µM.
Take `COc1c(N2CCC(CC(=O)O)CC2)c(F)cc2c(=O)c(C(=O)NCc3ccc(Cl)cc3C)cn(C3CC3)c12` [Example 67]: in the data set with HCMV (setting [3]), the pEC50 was 7.21. The same compound registered a 50% cytotoxic concentration (CC50) at 6 days in data set [1] of 21 µM.
Consider `COc1c(N2CCC[C@H](CC(=O)O)C2)c(F)cc2c(=O)c(C(=O)NCc3ccc(OC(F)(F)F)cc3C)cn(CC(F)(F)F)c12` [Example 73, {(3R)-1-[6-Fluoro-8-methoxy-3-({[2-methyl-4-(trifluoromethoxy)benzyl]amino}carbonyl)-4-oxo-1-(2,2,2-trifluoroethyl)-1,4-dihydroquinolin-7-yl]piperidin-3-yl}acetic acid], for which the pEC50 in the data set on HCMV (setting [3]) was 8.52. Besides, the CC50 at 6 days in data set [1] was 47 µM.
In the case of `COc1c(N2CCC(C(=O)O)CC2)c(F)cc2c(=O)c(C(=O)NCc3ccc(OC(F)(F)F)cc3C)cn(CC(F)(F)F)c12` [Example 75, 1-[6-Fluoro-8-methoxy-3-({[2-methyl-4-(trifluoromethoxy)benzyl]amino}carbonyl)-4-oxo-1-(2,2,2-trifluoroethyl)-1,4-dihydroquinolin-7-yl]piperidine-4-carboxylic acid diethanolamine salt], the negative logarithm of the EC50 (pEC50) with HCMV was 8.70. The compound further registered a CC50 in data set [2] of 47 µM.
Take `COc1c(N2CCC(C(=O)O)CC2)c(F)cc2c(=O)c(C(=O)NCc3ccc(OC(F)(F)F)cc3C)cn(CC(F)(F)F)c12` [Example 76, 1-[6-Fluoro-8-methoxy-3-({[2-methyl-4-(trifluoromethoxy)benzyl]amino}carbonyl)-4-oxo-1-(2,2,2-trifluoroethyl)-1,4-dihydroquinolin-7-yl]piperidine-4-carboxylic acid choline salt]: in the data set on HCMV, the pEC50 is 8.70. For the same compound, the 50% cytotoxic concentration (CC50) in data set [2] amounted to 47 µM.
For `Cc1cc(OC(F)(F)F)ccc1CNC(=O)c1cn(CC(F)(F)F)c2c(O)c(N3CCC(C(=O)O)CC3)c(F)cc2c1=O` [Example 77, 1-[6-Fluoro-8-hydroxy-3-({[2-methyl-4-(trifluoromethoxy)benzyl]amino}carbonyl)-4-oxo-1-(2,2,2-trifluoroethyl)-1,4-dihydroquinolin-7-yl]piperidine-4-carboxylic acid], the pEC50 in the data set on HCMV (setting [3]) is 8.22. The compound also came in with a CC50 at 6 days in data set [1] of 250 µM.
Turning to `CCOc1c(N2CCC(C(=O)O)CC2)c(F)cc2c(=O)c(C(=O)NCc3ccc(OC(F)(F)F)cc3C)cn(CC(F)(F)F)c12` [Example 79, 1-[8-Ethoxy-6-fluoro-3-({[2-methyl-4-(trifluoromethoxy)benzyl]amino}carbonyl)-4-oxo-1-(2,2,2-trifluoroethyl)-1,4-dihydroquinolin-7-yl]piperidine-4-carboxylic acid], in the data set with HCMV (setting [3]), the pEC50 was 8.70. In data set [1], this compound gave a CC50 at 6 days of 125 µM.

Source of the values: patent US7977349B2, “Substituted quinolones III” (Aicuris GmbH & Co. KG, priority 2006, dated 2011).
